Test results as given in patent publication US10053458B2, “Pyrimidine-2,4-diamine derivative and anticancer pharmaceutical composition comprising same as effective ingredient” (KOREA RESEARCH INSTITUTE OF CHEMICAL TECHNOLOGY, priority 2014, dated 2018).
Like-named read-outs stand apart in the source and are kept apart here.

Tests used:
BaF3 EML4-ALK WT cells [1] = conditions: mouse, 3 days
H2228 = test: Cancer cell proliferation inhibition (SRB/MTS), H2228; conditions: read-out: H2228 GI50
Experimental: (§1) Cancer cell lines used in the experiments were all human-derived cancer cell lines, specifically H2228 and H3122, which are non-small cell lung cancer cell lines.
(§2) The cancer cell proliferation inhibition was measured using the MTS assay as follows. […] Each culture medium was placed in an incubator for 4 hours, taken out and left at room temperature for 10 minutes.

H3122 = test: Cancer cell proliferation inhibition (SRB/MTS), H3122; conditions: read-out: H3122 GI50
Experimental: as §1, §2

ALK wt. = ALK wt. (Homo sapiens (Human), UniProt Q9UM73); test: ALK enzyme inhibitory activity (HTRF kinase assay), ALK wt.; conditions: read-out: ALK wt. IC50, enzyme level
BaF3 EML4-ALK WT cells [2] = test: Cytotoxicity on BaF3 cell transfected with EML4-ALK WT (WST-1); conditions: read-out: BaF3 EML4-ALK WT, IC50 of the cytotoxicity
[3] = non-small cell lung cancer cell line, 72 hours

Sequence of ALK wt. (Q9UM73 19-1620): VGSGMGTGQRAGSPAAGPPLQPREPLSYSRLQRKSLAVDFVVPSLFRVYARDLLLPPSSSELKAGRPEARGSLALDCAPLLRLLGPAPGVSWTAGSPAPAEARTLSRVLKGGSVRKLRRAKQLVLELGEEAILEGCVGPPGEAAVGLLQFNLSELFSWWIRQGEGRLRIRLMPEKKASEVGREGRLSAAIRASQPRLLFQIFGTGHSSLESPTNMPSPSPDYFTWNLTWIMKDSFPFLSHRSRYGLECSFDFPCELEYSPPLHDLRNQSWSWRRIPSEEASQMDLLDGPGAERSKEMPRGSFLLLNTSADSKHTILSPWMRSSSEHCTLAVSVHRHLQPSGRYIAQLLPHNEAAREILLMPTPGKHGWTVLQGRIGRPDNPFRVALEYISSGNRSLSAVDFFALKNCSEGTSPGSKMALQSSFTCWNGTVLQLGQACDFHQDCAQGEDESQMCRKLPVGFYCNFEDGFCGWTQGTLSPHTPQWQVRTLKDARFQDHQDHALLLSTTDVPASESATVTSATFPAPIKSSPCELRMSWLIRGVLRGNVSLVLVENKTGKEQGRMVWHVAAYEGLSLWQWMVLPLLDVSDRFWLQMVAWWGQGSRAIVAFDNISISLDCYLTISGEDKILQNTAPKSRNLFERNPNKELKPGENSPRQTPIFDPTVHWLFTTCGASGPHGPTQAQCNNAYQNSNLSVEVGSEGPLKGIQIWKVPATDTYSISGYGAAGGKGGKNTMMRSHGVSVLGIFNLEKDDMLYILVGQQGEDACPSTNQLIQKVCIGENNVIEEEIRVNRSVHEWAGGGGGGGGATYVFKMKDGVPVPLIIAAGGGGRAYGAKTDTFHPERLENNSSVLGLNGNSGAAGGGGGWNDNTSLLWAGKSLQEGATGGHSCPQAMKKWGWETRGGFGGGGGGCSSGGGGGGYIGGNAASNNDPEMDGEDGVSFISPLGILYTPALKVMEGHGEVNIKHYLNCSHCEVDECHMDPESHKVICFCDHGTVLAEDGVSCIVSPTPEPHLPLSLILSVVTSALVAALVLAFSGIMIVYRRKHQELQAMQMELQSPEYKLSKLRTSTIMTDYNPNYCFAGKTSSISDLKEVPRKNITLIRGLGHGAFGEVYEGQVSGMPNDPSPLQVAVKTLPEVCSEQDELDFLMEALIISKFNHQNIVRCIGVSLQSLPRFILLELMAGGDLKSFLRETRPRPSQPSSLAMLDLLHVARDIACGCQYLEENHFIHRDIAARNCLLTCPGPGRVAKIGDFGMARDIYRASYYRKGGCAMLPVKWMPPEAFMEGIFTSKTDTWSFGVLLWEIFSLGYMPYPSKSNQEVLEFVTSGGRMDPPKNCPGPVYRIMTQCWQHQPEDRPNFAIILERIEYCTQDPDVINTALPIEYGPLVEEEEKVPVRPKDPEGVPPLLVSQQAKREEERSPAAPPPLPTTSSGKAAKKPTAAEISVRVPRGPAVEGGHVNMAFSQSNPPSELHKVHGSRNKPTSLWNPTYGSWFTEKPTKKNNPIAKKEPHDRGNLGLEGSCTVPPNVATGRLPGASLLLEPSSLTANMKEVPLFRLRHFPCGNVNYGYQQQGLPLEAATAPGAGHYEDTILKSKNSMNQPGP

IC50 (BaF3 EML4-ALK WT cells [1]) [nM] | GI50 (H2228; Homo sapiens, NCI-H2228, 72 h) [nM] | GI50 (H3122; Homo sapiens, NCI-H3122, 72 h) [nM] | Structure (SMILES) | GI50 (H2228; [3]) [nM] | GI50 (H3122; [3]) [nM] | IC50 (ALK wt.) [nM] | IC50 (BaF3 EML4-ALK WT cells [2]; 3 days, WST-1) [nM] | IC50 (BaF3 EML4-ALK WT cells [2]; Ba/F3 EML4-ALK, 72 h) [nM]
19 | 25 | 23 | Cc1cc(Nc2ncc(Cl)c(Nc3ccccc3S(=O)(=O)C(C)C)n2)c(OC(C)C)cc1C1CCNCC1 [Comparative Example 2, LDK-378, reference compound] |  |  |  |  | 
 |  |  | COc1cc2c(cc1Nc1ncc(Cl)c(Nc3ccccc3S(=O)(=O)C(C)C)n1)CN(CCO)CC2(C)C [Example 93] | < 50 | < 50 | < 10 | < 50 | 
 | < 50 | < 50 | COc1cc2c(cc1Nc1ncc(Cl)c(Nc3ccccc3S(=O)(=O)C(C)C)n1)CNC2(C)C [Example 106, 5-chloro-N4-(2-(isopropylsulfonyl)phenyl)-N2-(6-methoxy-1,1-dimethylisoindolin-5-yl)pyrimidine-2,4-diamine] |  |  |  |  | < 50
